33 compounds from patent US20260008758A1, “LINEAR DIPEPTIDYL PEPTIDASE 1 INHIBITORS AND USES THEREOF” (Insmed Incorporated, priority 2024, published 2026) can be followed below.

The target in one test is human DPP1 enzyme (Homo sapiens (Human), UniProt P53634). Kind of test: Human DPP1 enzyme IC50 assay. It is filed as biochemical. The following applies: recombinant human DPP1, H-Gly-Arg-AMC substrate 400 μM. The procedure, abridged: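 Fluorogenic readout (350/450 nm, every 5 min over 90 min, 37°C) of H-Gly-Arg-AMC cleavage at 400 μM final substrate. Compounds met activated DPP1 first for a 10-min 37°C pre-incubation in MES buffer pH 6.0 with DTT, 1% DMSO final. Four-parameter sigmoidal fit gave IC50.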
human DPP1 enzyme, sequence (P53634 25-134): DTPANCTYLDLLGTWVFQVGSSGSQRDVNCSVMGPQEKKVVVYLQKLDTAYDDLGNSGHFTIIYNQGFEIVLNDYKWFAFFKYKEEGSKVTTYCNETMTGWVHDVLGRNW
human DPP1 enzyme, sequence (P53634 231-394): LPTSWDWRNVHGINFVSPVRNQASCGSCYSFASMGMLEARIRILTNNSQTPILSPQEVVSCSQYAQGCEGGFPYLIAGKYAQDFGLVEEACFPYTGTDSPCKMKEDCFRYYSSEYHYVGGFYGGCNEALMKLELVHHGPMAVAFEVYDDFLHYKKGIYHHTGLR
human DPP1 enzyme, sequence (P53634 395-463): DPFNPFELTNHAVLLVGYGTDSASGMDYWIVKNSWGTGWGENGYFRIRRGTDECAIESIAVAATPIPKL

The target in a further test is DPP1 in HL-60 cells (Homo sapiens (Human), UniProt P53634). The experiment in a line: DPP1 Cell IC50 assay. It is filed as cell-based. The following applies: H-Gly-Phe-AFC substrate, 60 min pre-incubation. The procedure, abridged: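 HL-60 cells (5×10^5 live cells/mL in PBS) were pre-incubated with compound in 0.5% DMSO for 60 min at 37 °C, 5% CO2, with shaking, then given 500 μM H-Gly-Phe-AFC solution for 30 min. Fluorescence was read at 400/505 nm. % inhibition was taken against vehicle wells, and IC50 came from a four-parameter logistic fit.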
DPP1 in HL-60 cells, sequence (P53634 25-134): as the sequence (P53634 25-134) above
DPP1 in HL-60 cells, sequence (P53634 231-394): as the sequence (P53634 231-394) above
DPP1 in HL-60 cells, sequence (P53634 395-463): as the sequence (P53634 395-463) above

Another test concerns the target active mouse DPP1 enzyme (Mus musculus (Mouse), UniProt P97821). Kind of test: Mouse DPP1 enzyme IC50 assay. To be noted: active mouse DPP1, H-Gly-Arg-AMC substrate 400 μM. It is filed as biochemical. The protocol:
25 μL of compound in Assay Buffer plus 5% DMSO was first added to 50 μL of active mouse DPP1 enzyme at a concentration of 62.5 pg/μL and allowed to pre-incubate for 10 minutes at 37° C. after which 50 μL of 1000 μM H-Gly-Arg-AMC substrate (Bachem; St. Torrance, CA) was added, giving final substrate concentration of 400 μM and a final DMSO concentration of 1%. Substrate cleavage was measured for 90 minutes at 37° C., with fluorescence at Excitation/Emission 350/450 nm measured every 5 minutes. DPP1 concentration was interpolated based on its activity relative to a standard curve of recombinant active mouse DPP1 enzyme. IC50 values for each compound were calculated via the XLFit (IDBS Version 5.3.1.3) Add-On to Microsoft Excel using the four parameter fit equation y=(A+((B-A)/(1+((C/x)^D)))), which appears as equation number 205 (4 Parameter Logistic Model or Sigmoidal Dose-Response Model) in XLFit. Default constraints were used for each Parameter.

Each structure is given as a SMILES string. Some results are limits rather than exact numbers.

active mouse DPP1 enzyme, sequence (P97821 25-134): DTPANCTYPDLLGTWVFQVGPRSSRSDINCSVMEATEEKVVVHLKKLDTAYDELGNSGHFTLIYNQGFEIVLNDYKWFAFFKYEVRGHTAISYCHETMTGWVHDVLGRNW
active mouse DPP1 enzyme, sequence (P97821 231-393): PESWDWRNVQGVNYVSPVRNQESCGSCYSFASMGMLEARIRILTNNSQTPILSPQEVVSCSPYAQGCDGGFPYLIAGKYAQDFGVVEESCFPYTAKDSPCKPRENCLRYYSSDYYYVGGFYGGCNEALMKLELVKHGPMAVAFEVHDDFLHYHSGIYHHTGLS
active mouse DPP1 enzyme, sequence (P97821 394-462): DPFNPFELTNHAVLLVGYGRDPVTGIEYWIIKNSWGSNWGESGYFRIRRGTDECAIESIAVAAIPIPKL

Consider `CN(C)C[C@H](O)C(=O)N[C@H](C#N)Cc1ccc(-c2ccc3oc(=O)n(C)c3c2)cc1` [Compound 101, (2S)—N-[(1S)-1-cyano-2-[4-(3-methyl-2-oxo-1,3-benzoxazol-5-yl)phenyl]ethyl]-3-(dimethylamino)-2-hydroxypropanamide], for which the IC50 (usually the point on the concentration scale where inhibition reaches its midpoint) was not below 15 nM on human DPP1 enzyme, 1 to 2.5 nM against DPP1 in HL-60 cells and 5 to 20 nM against active mouse DPP1 enzyme.

Regarding `CN(C)C[C@H](O)C(=O)N[C@H](C#N)Cc1ccc(-c2ccc3c(c2)C2(CN(C)C2)OC3=O)cc1` [Compound 137, (S)—N—((S)-1-cyano-2-(4-(1-methyl-3′-oxo-3′H-spiro[azetidine-3,1′-isobenzofuran]-6′-yl)phenyl)ethyl)-3-(dimethylamino)-2-hydroxypropanamide], the IC50 at human DPP1 enzyme is not below 15 nM; on DPP1 in HL-60 cells, not below 2.5 nM; against active mouse DPP1 enzyme, not above 5 nM.

For `CN(C)C[C@H](O)C(=O)N[C@H](C#N)Cc1ccc(-c2ccc3oc(=O)n(C)c3c2)cc1F` [Compound 138, (2S)—N-[(1S)-1-cyano-2-[2-fluoro-4-(3-methyl-2-oxo-1,3-benzoxazol-5-yl)phenyl]ethyl]-3-(dimethylamino)-2-hydroxypropanamide], the IC50 at human DPP1 enzyme is 5 to 15 nM; against DPP1 in HL-60 cells, not above 1 nM; at active mouse DPP1 enzyme, 5 to 20 nM.

Take `CN(C)C[C@H](O)C(=O)N[C@H](C#N)Cc1ccc(-c2ccc3oc(=O)n(CCN4CCOCC4)c3c2)cc1` [Compound 140, (2S)—N-[(1S)-1-cyano-2-(4-{3-[2-(morpholin-4-yl)ethyl]-2-oxo-1,3-benzoxazol-5-yl}phenyl)ethyl]-3-(dimethylamino)-2-hydroxypropanamide]: the IC50 on human DPP1 enzyme is not below 15 nM; on DPP1 in HL-60 cells it was not below 2.5 nM; at active mouse DPP1 enzyme, 5 to 20 nM.

Consider `CN[C@H](C)C(=O)N[C@H](C#N)Cc1ccc(-c2ccc3oc(=O)n(C)c3c2)cc1` [Compound 152, (R)—N—((S)-1-cyano-2-(4-(3-methyl-2-oxo-2,3-dihydrobenzo[d]oxazol-5-yl)phenyl)ethyl)-2-(methylamino)propanamide], for which the IC50 at human DPP1 enzyme was not below 15 nM; on active mouse DPP1 enzyme, not below 20 nM.

With `Cn1c(=O)oc2ccc(-c3ccc(C[C@@H](C#N)NC(=O)CCC(N)=O)cc3)cc21` [Compound 153], the IC50 at human DPP1 enzyme is not below 15 nM; on active mouse DPP1 enzyme, not below 20 nM.

`CN[C@@H](C)C(=O)N[C@H](C#N)Cc1ccc(-c2ccc3oc(=O)n(C)c3c2)cc1` [Compound 154]: the IC50 on human DPP1 enzyme is not below 15 nM; against active mouse DPP1 enzyme it was not below 20 nM.

As for `Cn1c(=O)oc2ccc(-c3ccc(C[C@@H](C#N)NC(=O)C(C)(C)CN)cc3)cc21` [Compound 155], the IC50 at human DPP1 enzyme was not below 15 nM; on active mouse DPP1 enzyme, not below 20 nM.

For `CNCCC(=O)N[C@H](C#N)Cc1ccc(-c2ccc3oc(=O)n(C)c3c2)cc1` [Compound 156], the values for the IC50 on human DPP1 enzyme and against active mouse DPP1 enzyme were not below 15 nM and not below 20 nM, respectively.

`Cn1c(=O)oc2ccc(-c3ccc(C[C@@H](C#N)NC(=O)CCN)cc3)cc21` [Compound 157]: the IC50 at human DPP1 enzyme is not below 15 nM; against active mouse DPP1 enzyme, not below 20 nM.

In the case of `CN(C)CC(=O)N[C@H](C#N)Cc1ccc(-c2ccc3oc(=O)n(C)c3c2)cc1` [Compound 158], the IC50 on human DPP1 enzyme was not below 15 nM; against active mouse DPP1 enzyme it was not below 20 nM.

Turning to `Cn1c(=O)oc2ccc(-c3ccc(C[C@@H](C#N)NC(=O)CC(N)C(N)=O)cc3)cc21` (some centres unmarked) [Compound 159], the IC50 on human DPP1 enzyme was not below 15 nM; against active mouse DPP1 enzyme, not below 20 nM.

In the case of `CC(N)CC(=O)N[C@H](C#N)Cc1ccc(-c2ccc3oc(=O)n(C)c3c2)cc1` (some centres unmarked) [Compound 160], the figures for the concentration for half-maximal inhibition (IC50) on human DPP1 enzyme and against active mouse DPP1 enzyme were not below 15 nM and not below 20 nM, respectively.

For `CC(CN)C(=O)N[C@H](C#N)Cc1ccc(-c2ccc3oc(=O)n(C)c3c2)cc1` (some centres unmarked) [Compound 161], the IC50 on human DPP1 enzyme was not below 15 nM; against active mouse DPP1 enzyme it was not below 20 nM.

For the compound `CCC(N)CC(=O)N[C@H](C#N)Cc1ccc(-c2ccc3oc(=O)n(C)c3c2)cc1` (some centres unmarked) [Compound 162], the IC50 on human DPP1 enzyme is not below 15 nM; at active mouse DPP1 enzyme, not below 20 nM.

On to `C=CC[C@H](N)CC(=O)N[C@H](C#N)Cc1ccc(-c2ccc3oc(=O)n(C)c3c2)cc1` [Compound 163], for which the IC50 on human DPP1 enzyme was not below 15 nM; against active mouse DPP1 enzyme it was not below 20 nM.

`CC(C)C(N)CC(=O)N[C@H](C#N)Cc1ccc(-c2ccc3oc(=O)n(C)c3c2)cc1` (stereo partly drawn) [Compound 164, 3-amino-N-[(1S)-1-cyano-2-[4-(3-methyl-2-oxo-2,3-dihydro-1,3-benzoxazol-5-yl)phenyl]ethyl]-4-methylpentanamide]: the IC50 at human DPP1 enzyme was not below 15 nM; on DPP1 in HL-60 cells, not below 2.5 nM; on active mouse DPP1 enzyme it was not below 20 nM.

Turning to `Cn1c(=O)oc2ccc(-c3ccc(C[C@@H](C#N)NC(=O)CC(N)C(F)F)cc3)cc21` (some centres unmarked) [Compound 166], the figures for the IC50 on human DPP1 enzyme and against active mouse DPP1 enzyme were not below 15 nM and not below 20 nM, respectively.

Consider `Cn1c(=O)oc2ccc(-c3ccc(C[C@@H](C#N)NC(=O)C[C@@H](N)Cc4cccs4)cc3)cc21` [Compound 181], for which the IC50 was not below 15 nM at human DPP1 enzyme and not below 20 nM against active mouse DPP1 enzyme.

As for `Cn1c(=O)oc2ccc(-c3ccc(C[C@@H](C#N)NC(=O)CC(N)CCc4ccccc4)cc3)cc21` (some centres unmarked) [Compound 183], the IC50 on human DPP1 enzyme was not below 15 nM; against active mouse DPP1 enzyme, not below 20 nM.

`Cn1c(=O)oc2ccc(-c3ccc(C[C@@H](C#N)NC(=O)CC(N)Cc4ccccc4)cc3)cc21` (stereo partly drawn) [Compound 184, 3-amino-N-[(1S)-1-cyano-2-[4-(3-methyl-2-oxo-2,3-dihydro-1,3-benzoxazol-5-yl)phenyl]ethyl]-4-phenylbutanamide]: the figures for the concentration for half-maximal inhibition (IC50) at human DPP1 enzyme and against active mouse DPP1 enzyme were not below 15 nM and not below 20 nM, respectively.

As to `Cn1c(=O)oc2ccc(-c3ccc(C[C@@H](C#N)NC(=O)CC(N)Cc4ccsc4)cc3)cc21` (some centres unmarked) [Compound 185], the values for the IC50 on human DPP1 enzyme and against active mouse DPP1 enzyme were not below 15 nM and not below 20 nM, respectively.

In the case of `Cn1c(=O)oc2ccc(-c3ccc(C[C@@H](C#N)NC(=O)C[C@@H](N)Cc4ccccc4)cc3)cc21` [Compound 186], the IC50 is not below 15 nM at human DPP1 enzyme and not below 20 nM against active mouse DPP1 enzyme.

In the case of `Cn1c(=O)oc2ccc(-c3ccc(C[C@@H](C#N)NC(=O)C[C@H](N)Cc4ccccc4)cc3)cc21` [Compound 187], the IC50 at human DPP1 enzyme is not below 15 nM; on active mouse DPP1 enzyme, not below 20 nM.

With `Cn1c(=O)oc2ccc(-c3ccc(C[C@@H](C#N)NC(=O)CCNC(=O)c4cccs4)cc3)cc21` [Compound 238, N-[(1S)-1-cyano-2-[4-(3-methyl-2-oxo-1,3-benzoxazol-5-yl)phenyl]ethyl]-3-(thiophen-2-ylformamido)propanamide], the results for the IC50 on human DPP1 enzyme and against active mouse DPP1 enzyme were not below 15 nM and not below 20 nM, respectively.

For the compound `Cn1c(=O)oc2ccc(-c3ccc(C[C@@H](C#N)NC(=O)CNC(=O)c4cccs4)cc3)cc21` [Compound 239, N-[(1S)-1-cyano-2-[4-(3-methyl-2-oxo-1,3-benzoxazol-5-yl)phenyl]ethyl]-2-(thiophen-2-ylformamido)acetamide], the IC50 at active mouse DPP1 enzyme was not below 20 nM.

For `Cn1c(=O)oc2ccc(-c3ccc(C[C@@H](C#N)NC(=O)CNC(=O)c4ccco4)cc3)cc21` [Compound 240, N-[(1S)-1-cyano-2-[4-(3-methyl-2-oxo-1,3-benzoxazol-5-yl)phenyl]ethyl]-2-(furan-2-ylformamido)acetamide], the IC50 at human DPP1 enzyme is not below 15 nM; at active mouse DPP1 enzyme, not below 20 nM.

On to `Cn1c(=O)oc2ccc(-c3ccc(C[C@@H](C#N)NC(=O)CCC#N)cc3)cc21` [Compound 241], for which the figures for the IC50 on human DPP1 enzyme and at active mouse DPP1 enzyme were not below 15 nM and not below 20 nM, respectively.

Turning to `CC(O)C(=O)N[C@H](C#N)Cc1ccc(-c2ccc3oc(=O)n(C)c3c2)cc1` (some centres unmarked) [Compound 242], the IC50 on human DPP1 enzyme was not below 15 nM; against active mouse DPP1 enzyme, not below 20 nM.

As for `Cn1c(=O)oc2ccc(-c3ccc(C[C@@H](C#N)NC(=O)COC(=O)c4ccco4)cc3)cc21` [Compound 243, {[(1S)-1-cyano-2-[4-(3-methyl-2-oxo-1,3-benzoxazol-5-yl)phenyl]ethyl]carbamoyl}methyl furan-2-carboxylate], the IC50 on human DPP1 enzyme is not below 15 nM; against active mouse DPP1 enzyme, not below 20 nM.

At active mouse DPP1 enzyme, `Cn1c(=O)oc2ccc(-c3ccc(C[C@@H](C#N)NC(=O)CCOC(=O)c4cccs4)cc3)cc21` [Compound 244, 2-{[(1S)-1-cyano-2-[4-(3-methyl-2-oxo-1,3-benzoxazol-5-yl)phenyl]ethyl]carbamoyl}ethyl thiophene-2-carboxylate] yielded an IC50 not below 20 nM.

Take `Cn1c(=O)oc2ccc(-c3ccc(C[C@@H](C#N)NC(=O)COC(=O)c4cccs4)cc3)cc21` [Compound 245, (S)-2-((1-cyano-2-(4-(3-methyl-2-oxo-2,3-dihydrobenzo[d]oxazol-5-yl)phenyl)ethyl)amino)-2-oxoethyl thiophene-2-carboxylate]: the IC50 at active mouse DPP1 enzyme was not below 20 nM.

As to `CC(O)CNCC(=O)N[C@@H](C#N)Cc1ccc(-c2ccc3oc(=O)n(C)c3c2)cc1` (some centres unmarked) [compound 175], the IC50 was not below 15 nM at human DPP1 enzyme and 5 to 20 nM at active mouse DPP1 enzyme.
